Test results as given in patent US20120101093A1, “SUBSTITUTED IMIDAZO[1,2-A]PYRIDINE DERIVATIVES, PHARMACEUTICAL COMPOSITIONS, AND METHODS OF USE AS BETA-SECRETASE INHIBITORS” (HIGH POINT PHARMACEUTICALS, LLC, priority 2009, published 2012).

Molecular target: T1, BACE-1 enzyme (Homo sapiens, UniProt P56817)
T1 construct: purchased R & D Systems 931AS
Assay: BACE Fluorescence Resonance Energy Transfer (FRET) Assay
Assay type: biochemical
Details: pH 4-4.5, 30 min pre-incubation, about 1.5 hours reaction
Experimental: BACE Fluorescence Resonance Energy Transfer (FRET) Assay
In the following assay, the proteolytic activity of BACE is measured by observing cleavage of a fluorescent group from a peptide substrate containing a rhodamine fluorescent donor and a quenching acceptor.
The inhibitory activity of compounds of Formula (I) may be compared to a statine derived control inhibitor STA200 (MP Biomedical Cat. #STA-200). The cleavage reaction occurs when a BACE-1 substrate (Invitrogen, Cat. #P2986) was added to a reaction mixture containing BACE-1 enzyme (R & D Systems, Cat. #931AS) and allowed to proceed for about 1.5 hours. Fluorescence, used as a marker of BACE activity, is monitored using 540 nm excitation and 585 nm emission wavelengths (Envision, Perkin Elmer).
A typical assay reaction contains BACE-1 enzyme—in assay buffer (50 mM sodium acetate, pH 4-4.5, 0.01% CHAPS (3-[(3-Cholamidopropyl)dimethylammonio]-1-propanesulfonate), 0.0125% TritonX-100, 0.006% EDTA) which is pre-incubated for 30 minutes with test compound in 7.5% DMSO. The reaction is initiated with the addition of BACE-1 substrate in assay buffer and allowed to proceed for about 1.5 hours at room temperature. Assays are conducted in black 384-well microtiter plates and scanned at room temperature using 540 nm excitation and 585 nm emission wavelengths.
In some instances, the percent inhibition at a given concentration is reported instead of the IC50.

T1 sequence (P56817 46-457 limits assumed): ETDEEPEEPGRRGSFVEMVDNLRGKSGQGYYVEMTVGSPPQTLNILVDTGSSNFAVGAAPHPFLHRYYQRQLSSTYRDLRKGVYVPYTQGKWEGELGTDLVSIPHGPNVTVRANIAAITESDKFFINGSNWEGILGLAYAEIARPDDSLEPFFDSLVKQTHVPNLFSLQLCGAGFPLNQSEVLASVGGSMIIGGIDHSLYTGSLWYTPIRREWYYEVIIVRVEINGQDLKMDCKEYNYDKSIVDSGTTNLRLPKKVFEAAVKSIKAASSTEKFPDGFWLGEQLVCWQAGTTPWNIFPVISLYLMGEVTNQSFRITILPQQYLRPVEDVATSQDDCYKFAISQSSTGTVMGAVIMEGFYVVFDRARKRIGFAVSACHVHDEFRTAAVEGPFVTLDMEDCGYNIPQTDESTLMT

| Compound | IC50 |
| --- | --- |
| CCCc1cccc2nc(C(=O)Nc3nc4cc(-c5cccc(OC(F)(F)F)c5)ccc4[nH]3)cn12 [Example 221, 5-propyl-N-{5-[3-(trifluoromethoxy)phenyl]-1H-benzimidazol-2-yl}imidazo[1,2-a]pyridine-2-carboxamide] | 0.28 µM |
| O=C(Nc1nc2cc(OCc3ccccc3)ccc2[nH]1)c1cn2cc(Cl)ccc2n1 [Example 13, 6-Chloro-imidazo[1,2-a]pyridine-2-carboxylic acid (5-benzyloxy-1H-benzoimidazol-2-yl)-amide] | 0.08 µM |
| Cc1cccc2nc(C(=O)Nc3nc4cc(-c5cc(F)cc(C(F)(F)F)c5)ccc4[nH]3)cn12 [Example 94, 5-Methyl-imidazo[1,2-a]pyridine-2-carboxylic acid [5-(3-fluoro-5-trifluoromethyl-phenyl)-1H-benzoimidazol-2-yl]-amide] | 0.42 µM |
| Cc1cccc2nc(C(=O)Nc3nc4cc(C5CCCCC5)ccc4[nH]3)cn12 [Example 85, 5-Methyl-imidazo[1,2-a]pyridine-2-carboxylic acid (5-cyclohexyl-1H-benzoimidazol-2-yl)-amide] | 1.93 µM |
| CCN(C)Cc1cccc2nc(C(=O)Nc3nc4cc(-c5cccc(C(F)(F)F)c5)ccc4[nH]3)cn12 [Example 189, 5-[(Ethyl-methyl-amino)-methyl]-imidazo[1,2-a]pyridine-2-carboxylic acid [5-(3-trifluoromethyl-phenyl)-1H-benzoimidazol-2-yl]-amide] | 0.95 µM |
| Cc1cccc2nc(C(=O)Nc3nc4cc(-c5cccc(OC6CCCCC6)c5)ccc4[nH]3)cn12 [Example 40, 5-Methyl-imidazo[1,2-a]pyridine-2-carboxylic acid [5-(3-cyclohexyloxy-phenyl)-1H-benzoimidazol-2-yl]-amide] | 2.55 µM |
| COCCNCc1ccn2cc(C(=O)Nc3nc4cc(-c5cccc(C(F)(F)F)c5)ccc4[nH]3)nc2c1 [Example 208, 7-[(2-Methoxy-ethylamino)-methyl]-imidazo[1,2-a]pyridine-2-carboxylic acid [5-(3-trifluoromethyl-phenyl)-1H-benzoimidazol-2-yl]-amide] | 0.23 µM |
| COCCn1c(NC(=O)c2cn3c(C)cccc3n2)nc2ccc(-c3cccc(C(F)(F)F)c3)cc21 [Example 239, 5-Methyl-imidazo[1,2-a]pyridine-2-carboxylic acid [1-(2-methoxy-ethyl)-6-(3-trifluoromethyl-phenyl)-1H-benzoimidazol-2-yl]-amide] | 0.7 µM |
| CN(C)C(=O)c1cccn2cc(C(=O)Nc3nc4cc(-c5cccc(C(F)(F)F)c5)ccc4[nH]3)nc12 [Example 230, Imidazo[1,2-a]pyridine-2,8-dicarboxylic acid 8-dimethylamide 2-{[5-(3-trifluoromethyl-phenyl)-1H-benzoimidazol-2-yl]-amide}] | 0.28 µM |
| CC(C)(C)NCc1cccn2cc(C(=O)Nc3nc4cc(-c5cccc(C(F)(F)F)c5)ccc4[nH]3)nc12 [Example 193, 8-(tert-Butylamino-methyl)-imidazo[1,2-a]pyridine-2-carboxylic acid [5-(3-trifluoromethyl-phenyl)-1H-benzoimidazol-2-yl]-amide] | 1.65 µM |
| CNC(=O)c1cccn2cc(C(=O)Nc3nc4cc(-c5cccc(C(F)(F)F)c5)ccc4[nH]3)nc12 [Example 229, Imidazo[1,2-a]pyridine-2,8-dicarboxylic acid 8-methylamide 2-{[5-(3-trifluoromethyl-phenyl)-1H-benzoimidazol-2-yl]-amide}] | 0.16 µM |
| Cc1cccc2nc(C(=O)Nc3nc4cc(-c5cccc(N6CCOCC6)c5)ccc4[nH]3)cn12 [Example 44, 5-Methyl-imidazo[1,2-a]pyridine-2-carboxylic acid [5-(3-morpholin-4-yl-phenyl)-1H-benzoimidazol-2-yl]-amide] | 4.37 µM |
| CC(C)(C)NCc1ccc2nc(C(=O)Nc3nc4cc(-c5cccc(C(F)(F)F)c5)ccc4[nH]3)cn2c1 [Example 178, 6-(Tert-Butylamino-methyl)-imidazo[1,2-a]pyridine-2-carboxylic acid [5-(3-trifluoromethyl-phenyl)-1H-benzoimidazol-2-yl]-amide] | 0.43 µM |
| Cc1cccn2cc(C(=O)Nc3nc4cc(OCc5ccccc5)ccc4[nH]3)nc12 [Example 14, 8-Methyl-imidazo[1,2-a]pyridine-2-carboxylic acid (5-benzyloxy-1H-benzoimidazol-2-yl)-amide] | 0.12 µM |
| COc1cccc2nc(C(=O)Nc3nc4cc(-c5cccc(C(F)(F)F)c5)ccc4[nH]3)cn12 [Example 4, 5-Methoxy-imidazo[1,2-a]pyridine-2-carboxylic acid[5-(3-trifluoromethyl-phenyl)-1H-benzoimidazol-2-yl]-amide] | 0.51 µM |
| O=C(Nc1nc2cc(OCc3ccc(F)cc3F)ccc2[nH]1)c1cn2cc(Cl)ccc2n1 [Example 24, 6-Chloro-imidazo[1,2-a]pyridine-2-carboxylic acid [5-(2,4-difluoro-benzyloxy)-1H-benzoimidazol-2-yl]-amide] | 0.13 µM |
| CN1CCN(CCOc2cc(F)cn3cc(C(=O)Nc4nc5cc(-c6cc(F)cc(Cl)c6)ccc5[nH]4)nc23)CC1 [Example 148, 6-Fluoro-8-[2-(4-methyl-piperazin-1-yl)-ethoxy]-imidazo[1,2-a]pyridin-2-carboxylic acid [5-(3-chloro-5-fluoro-phenyl)-1H-benzoimidazol-2-yl]-amide] | 0.39 µM |
| O=C(Nc1nc2cc(-c3cccc(C(F)(F)F)c3)ccc2[nH]1)c1cn2cccc(-c3ccccc3)c2n1 [Example 216, 8-phenyl-N-{5-[3-(trifluoromethyl)phenyl]-1H-benzimidazol-2-yl}imidazo[1,2-a]pyridine-2-carboxamide] | 0.65 µM |
| Cc1cccn2cc(C(=O)Nc3nc4cc(-c5cc(Cl)cc(C(F)(F)F)c5)ccc4[nH]3)nc12 [Example 86, 8-Methyl-imidazo[1,2-a]pyridine-2-carboxylic acid [5-(3-chloro-5-trifluoromethyl-phenyl)-1H-benzoimidazol-2-yl]-amide] | 0.28 µM |
| CNc1cc(F)cn2cc(C(=O)Nc3nc4cc(-c5cccc(OC(F)(F)F)c5)ccc4[nH]3)nc12 [Example 132, 6-Fluoro-8-methylamino-imidazo[1,2-a]pyridine-2-carboxylic acid [5-(3-trifluoromethoxy-phenyl)-1H-benzoimidazol-2-yl]-amide] | 1.04 µM |
| COc1cccn2cc(C(=O)Nc3nc4cc(-c5cc(F)cc(Cl)c5)ccc4[nH]3)nc12 [Example 151, 8-Methoxy-imidazo[1,2-a]pyridine-2-carboxylic acid [5-(3-chloro-5-fluoro-phenyl)-1H-benzoimidazol-2-yl]-amide] | 0.31 µM |
| CC(C)c1cccc2nc(C(=O)Nc3nc4cc(-c5cccc(OC(F)(F)F)c5)ccc4[nH]3)cn12 [Example 223, 5-(propan-2-yl)-N-{5-[3-(trifluoromethoxy)phenyl]-1H-benzimidazol-2-yl}imidazo[1,2-a]pyridine-2-carboxamide] | 0.83 µM |
| COCCCNc1cc(F)cn2cc(C(=O)Nc3nc4cc(-c5cc(F)cc(Cl)c5)ccc4[nH]3)nc12 [Example 139, 6-Fluoro-8-(3-methoxy-propylamino)-imidazo[1,2-a]pyridine-2-carboxylic acid [5-(3-chloro-5-fluoro-phenyl)-1H-benzoimidazol-2-yl]-amide] | 0.48 µM |
| CC(C)c1cccc2nc(C(=O)Nc3nc4cc(-c5cccc(C(F)(F)F)c5)ccc4[nH]3)cn12 [Example 222, 5-(propan-2-yl)-N-{5-[3-(trifluoromethyl)phenyl]-1H-benzimidazol-2-yl}imidazo[1,2-a]pyridine-2-carboxamide] | 1.23 µM |
| Cc1c(C#CC(C)(C)O)ccc2nc(C(=O)Nc3nc4cc(-c5cccc(C(F)(F)F)c5)ccc4[nH]3)cn12 [Example 6, 6-(3-Hydroxy-3-methyl-but-1-ynyl)-5-methyl-imidazo[1,2-a]pyridine-2-carboxylic acid [5-(3-trifluoromethyl-phenyl)-1H-benzoimidazol-2-yl]-amide] | 0.25 µM |
| O=C(Nc1nc2cc(-c3cc(F)cc(Cl)c3)ccc2[nH]1)c1cn2cc(F)ccc2n1 [Example 113, 6-Fluoro-imidazo[1,2-a]pyridine-2-carboxylic acid [5-(3-chloro-5-fluoro-phenyl)-1H-benzoimidazol-2-yl]-amide] | 0.46 µM |
| CC(C)CNCc1cccc2nc(C(=O)Nc3nc4cc(-c5cccc(C(F)(F)F)c5)ccc4[nH]3)cn12 [Example 164, 5-(Isobutylamino-methyl)-imidazo[1,2-a]pyridine-2-carboxylic acid [5-(3-trifluoromethyl-phenyl)-1H-benzoimidazol-2-yl]-amide] | 0.3 µM |
| O=C(Nc1nc2cc(-c3cc(F)cc(Cl)c3)ccc2[nH]1)c1cn2cc(F)cc(N3CCNCC3)c2n1 [Example 130, 6-Fluoro-8-piperazin-1-yl-imidazo[1,2-a]pyridine-2-carboxylic acid [5-(3-chloro-5-fluoro-phenyl)-1H-benzoimidazol-2-yl]-amide] | 0.35 µM |
| O=C(Nc1nc2cc(-c3cc(F)cc(Cl)c3)ccc2[nH]1)c1cn2cc(Cl)cc(Cl)c2n1 [Example 143, 6,8-Dichloro-imidazo[1,2-a]pyridine-2-carboxylic acid [5-(3-chloro-5-fluoro-phenyl)-1H-benzoimidazol-2-yl]-amide] | 1.06 µM |
